Results taken from ChEMBL document CHEMBL5316350, “Novel Pyrido[2',1':2,3]imidazo[4,5-c]quinoline Derivative Selectively Poisons Leishmania donovani Bisubunit Topoisomerase 1 to Inhibit the Antimony-Resistant Leishmania Infection in Vivo” (J Med Chem, 2023).
The source made the active and inactive calls. The rule behind the calls is not given here.

How the values were obtained:
Leishmania donovani [1] = assay: Antileishmanial activity against Leishmania donovani Ag83 promastigotes infected in BALB/c mouse assessed as reduction of amastigote burden in liver treated after 3 weeks of infection at 5 to 10 mg/kg, ip twice a week for 3 weeks by Giemsa staining stamp-smear based limiting dilution assay; type: functional, organism-based; details: dose 5-10 mg/kg
Leishmania donovani [2] = assay: Antileishmanial activity in Leishmania donovani Ag83 promastigotes assessed as persistent Top1cc-induced DNA breakdown by measuring TUNEL positive cells treated for 6 to 12 hrs followed by compound removal measured after 6 to 12 hrs by confocal microscopic analysis relative to camptothecin; type: functional, organism-based; details: time 6-12 hrs
Leishmania donovani [3] = assay: Induction of apoptosis in Leishmania donovani BHU575 assessed as DNA break accumulation measured at 5 uM after 6 to 24 hrs by TUNEL staining based assay; type: functional, organism-based; details: time 6-24 hrs
[4] = molecular target: T1, DNA topoisomerase I (Leishmania donovani (strain BPK282A1)) (UniProt E9BRC0); assay: Binding affinity to antimony resistant Leishmania donovani BHU575 promastigotes recombinant topoisomerase I assessed as stabilization of cleavage complex at 5 to 50 uM measured after 30 mins; details: dose 5-50 µM
T1 sequence (whole entry): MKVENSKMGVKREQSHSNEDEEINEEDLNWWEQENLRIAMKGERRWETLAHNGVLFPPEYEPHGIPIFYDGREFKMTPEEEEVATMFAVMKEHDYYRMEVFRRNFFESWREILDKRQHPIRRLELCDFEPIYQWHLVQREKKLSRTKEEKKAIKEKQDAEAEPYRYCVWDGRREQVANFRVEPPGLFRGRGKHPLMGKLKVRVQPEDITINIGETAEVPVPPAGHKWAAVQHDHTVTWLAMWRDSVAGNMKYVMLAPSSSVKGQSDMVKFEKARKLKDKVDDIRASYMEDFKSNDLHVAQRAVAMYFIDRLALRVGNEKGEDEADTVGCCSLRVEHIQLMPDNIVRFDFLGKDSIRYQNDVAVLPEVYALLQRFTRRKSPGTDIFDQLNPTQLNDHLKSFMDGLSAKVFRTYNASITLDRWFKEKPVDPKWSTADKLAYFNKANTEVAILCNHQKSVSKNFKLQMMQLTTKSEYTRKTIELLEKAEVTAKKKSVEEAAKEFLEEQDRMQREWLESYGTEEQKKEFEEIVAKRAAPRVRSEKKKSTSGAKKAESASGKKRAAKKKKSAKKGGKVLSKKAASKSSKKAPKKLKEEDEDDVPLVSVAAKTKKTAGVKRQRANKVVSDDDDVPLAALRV

[5] = molecular target: T2, DNA topoisomerase 1 (Homo sapiens) (UniProt P11387); assay: Inhibition of human recombinant Top1 infected in Sf9 cells assessed as plasmid DNA relaxation upto 100 uM measured after 30 mins
T2 sequence (whole entry): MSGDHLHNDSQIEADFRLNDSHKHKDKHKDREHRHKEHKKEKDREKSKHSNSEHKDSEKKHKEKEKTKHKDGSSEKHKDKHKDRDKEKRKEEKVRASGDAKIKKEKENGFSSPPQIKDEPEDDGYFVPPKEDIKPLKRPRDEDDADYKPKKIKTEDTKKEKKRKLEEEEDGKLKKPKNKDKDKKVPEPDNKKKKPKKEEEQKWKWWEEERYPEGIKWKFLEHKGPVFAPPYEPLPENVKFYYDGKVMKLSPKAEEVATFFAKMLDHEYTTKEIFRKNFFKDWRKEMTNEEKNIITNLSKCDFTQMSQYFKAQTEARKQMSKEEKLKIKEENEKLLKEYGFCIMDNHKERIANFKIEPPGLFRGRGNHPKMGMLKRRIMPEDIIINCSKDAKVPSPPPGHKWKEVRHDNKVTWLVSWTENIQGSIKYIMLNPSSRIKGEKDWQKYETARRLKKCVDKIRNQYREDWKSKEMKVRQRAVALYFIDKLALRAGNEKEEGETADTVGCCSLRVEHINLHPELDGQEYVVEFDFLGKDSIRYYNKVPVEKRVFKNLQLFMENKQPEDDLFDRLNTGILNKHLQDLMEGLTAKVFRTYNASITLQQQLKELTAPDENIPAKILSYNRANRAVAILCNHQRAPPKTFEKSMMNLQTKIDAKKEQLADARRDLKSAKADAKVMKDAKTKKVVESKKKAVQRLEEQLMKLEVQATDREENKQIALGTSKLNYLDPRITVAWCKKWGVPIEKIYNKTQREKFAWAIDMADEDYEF

Leishmania donovani [6] = assay: Induction of apoptosis in Leishmania donovani Ag83 promastigotes assessed as early apoptotic cells measured at 5 uM after 12 hrs by Annexin V-FITC/PI staining based flow cytometric analysis (reference value: 0.00%); type: functional
DNA topoisomerase I = molecular target: T3, DNA topoisomerase I (Leishmania donovani (strain BPK282A1), UniProt E9BRC0); assay: (§1) Inhibition of recombinant Top1 in Antimony resistant Leishmania donovani BHU575 whole cell extract assessed as relaxation of supercoiled pBluescript SK(+) DNA measured by agarose gel electrophoresis analysis
T3 sequence (E9BRC0 whole entry): T1 sequence (whole entry)

[7] = molecular target: T1, DNA topoisomerase I (Leishmania donovani (strain BPK282A1)); assay: as §1; details: dose 5-50 µM
Leishmania donovani [8] = assay: Induction of cell cycle arrest in antimony resistant Leishmania donovani BHU575 promastigotes assessed as decrease in accumulation of cells in G2/M phase at 5 uM measured after 6 hrs by PI staining based flow cytometry (reference value: 8.8%); type: functional; parameters: scale not given: the % may be the effect or the level left
Leishmania donovani [9] = assay: Induction of apoptosis in Leishmania donovani BHU575 promastigotes assessed as DNA break accumulation measured at 5 uM after 6 to 24 hrs by TUNEL staining based assay; type: functional, organism-based; details: time 6-24 hrs
Leishmania donovani [10] = assay: Antileishmanial activity against Leishmania donovani Ag83 promastigotes infected in BALB/c mouse assessed as reduction of amastigote burden by measuring parasite count in spleen treated after 3 weeks of infection at 5 to 10 mg/kg, ip twice a week for 3 weeks by qPCR based kineto-plastid DNA; type: functional, organism-based; details: dose 5-10 mg/kg
Leishmania donovani [11] = assay: Antileishmanial activity against antimony resistant Leishmania donovani BHU575 promastigotes assessed as cell viability by MTT assay; type: functional, organism-based
Leishmania donovani [12] = assay: (§2) Antileishmanial activity against Leishmania donovani Ag83 promastigotes infected in BALB/c mouse model of visceral leishmaniasis assessed as fold change in T-helper type 1 immunological evoke response in splenocytes by measuring decrease in TGF-beta level treated after 3 weeks of infection at 5 to 10 mg/kg, ip twice a week for 3 weeks by RT-PCR analysis; type: functional; details: dose 5-10 mg/kg
Leishmania donovani [13] = assay: as §2, with “increased IL-12 cytokine” for “decrease in TGF-beta”; type: functional; details: dose 5-10 mg/kg
[14] = molecular target: T1, DNA topoisomerase I (Leishmania donovani (strain BPK282A1)); assay: Inhibition of Leishmania donovani recombinant Top1 assessed as relaxation of supercoiled pBluescript SK(+) DNA incubated for 30 mins by agarose gel electrophoresis analysis; details: dose 0.5-10 µM
[15] = molecular target: T1, DNA topoisomerase I (Leishmania donovani (strain BPK282A1)); assay: Potency index, ratio of Camptothecin IC50 to compound IC50 for inhibition of Leishmania donovani Top1 assessed as relaxation of supercoiled pBluescript SK(+) DNA measured by agarose gel electrophoresis analysis
MCF7 = assay: Induction of cell cycle arrest in human MCF7 cells measured at 5 uM upto 24 hrs by PI staining based flow cytometry; type: functional
[16] = molecular target: T1, DNA topoisomerase I (Leishmania donovani (strain BPK282A1)); assay: Inhibition of recombinant Top1 in Leishmania donovani Ag83 whole cell extract preincubated with compound for 5 mins followed by plasmid DNA addition at 5 to 20 uM measured after 30 mins; details: dose 5-20 µM

COc1cc(-c2nc3ccccc3c3nc4ccccn4c23)cc(OC)c1OC
Activity (Leishmania donovani [1]): Active
Activity (Leishmania donovani [2]): Active
Activity (Leishmania donovani [3]): Active
Activity [4]: Active
inhibition [5]: inactive
Activity (Leishmania donovani [6]): 11.4%
IC50 (DNA topoisomerase I): 8.75 µM
inhibition [7]: Dose-Dependent Effect
Activity (Leishmania donovani [8]): 2.6%
Activity (Leishmania donovani [9]): Active
Activity (Leishmania donovani [10]): Active
EC50 (Leishmania donovani [11]): 4.8 µM
fold change (FC) (Leishmania donovani [12]): 2
fold change (FC) (Leishmania donovani [13]): 10
inhibition [14]: Dose-Dependent Effect
Ratio IC50 [15]: 2.5
Activity (MCF7): inactive
inhibition [16]: inactive
